Results as given in US7148249B2, “Indolinones substituted by heterocycles, the preparation thereof and their use as medicaments” (Boehringer Ingelheim Pharma GmbH & Co. KG, priority 2002, dated 2006).

Experiments:
[1] = system: Human umbilical endothelial cells (HUVEC); assay: Inhibition of VEGF165-stimulated HUVEC proliferation (3H-thymidine incorporation); assay type: cell-based; conditions: Homo sapiens; HUVEC proliferation stimulated with 5 ng/ml VEGF165 and 10 μg/ml heparin; 76 h incubation + 16 h 3H-thymidine
Protocol: Human umbilical endothelial cells (HUVEC) were cultivated in IMDM (Gibco BRL), supplemented with 10% foetal calf serum (FBS) (Sigma), 50 μM of β-mercaptoethanol (Fluka), standard antibiotics, 15 μg/ml of endothelial cell growth factor (ECGS, Collaborative Biomedical Products) and 100 μg/ml of heparin (Sigma) on gelatine-coated culture dishes (0.2% gelatine, Sigma) at 37° C., under 5% CO2 in a water-saturated atmosphere.
In order to investigate the inhibitory activity of the compounds according to the invention the cells were “starved” for 16 hours, i.e. kept in culture medium without growth factors (ECGS+heparin). The cells were detached from the culture dishes using trypsin/EDTA and washed once in serum-containing medium. Then they were seeded out in amounts of 2.5×10^3 cells per well.
The proliferation of the cells was stimulated with 5 ng/ml of VEGF165 (vascular endothelial growth factor; H. Weich, GBF Braunschweig) and 10 μg/ml of heparin. As a control, 6 wells in each dish were not stimulated.
The compounds according to the invention were dissolved in 100% dimethylsulphoxide and added to the cultures in various dilutions as triple measurements, the maximum dimethylsulphoxide concentration being 0.3%.
The cells were incubated for 76 hours at 37° C., then for a further 16 hours ^3H-thymidine (0.1 μCi/well, Amersham) was added in order to determine the DNA synthesis. Then the radioactively labelled cells were immobilised on filter mats and the radioactivity incorporated was measured in a β-counter. In order to determine the inhibitory activity of the compounds according to the invention the mean value of the non-stimulated cells was subtracted from the mean value of the factor-stimulated cells (in the presence or absence of the compounds according to the invention).
The relative cell proliferation was calculated as a percentage of the control (HUVEC without inhibitor) and the concentration of active substance which inhibits the proliferation of the cells by 50% (IC50) was determined.

Row | SMILES | melting point | IC50 [1]
1 | CN(C)Cc1ccc(N/C(=C2\C(=O)Nc3ccccc32)c2ccc3nc[nH]c3c2)cc1 [(ag), 3-(Z)-{1-[4-(dimethylaminomethyl)-phenylamino]-1-(benzimidazol-5-yl)-methylene}-2-indolinone] | 273 to 277 °C (dec.) | 0.031 µM
2 | O=C1Nc2cc(Cl)ccc2/C1=C(/Nc1ccc(CN2CCCC2)cc1)c1ccc2nc[nH]c2c1 [(ai), 3-(Z)-{1-[4-(pyrrolidin-1-yl-methyl)-phenylamino]-1-(benzimidazol-5-yl)-methylene}-6-chloro-2-indolinone] | 277 to 279 °C | 0.003 µM
3 | CN(C)CC(=O)N(C)c1ccc(N/C(=C2\C(=O)Nc3ccccc32)c2ccc3c(c2)OCO3)cc1 [(aj), 3-(Z)-{1-(4-[N-methyl-N-(dimethylaminomethylcarbonyl)-amino]-phenylamino)-1-(3,4-methylenedioxyphenyl)-methylene}-2-indolinone] | 221 to 222 °C | 0.013 µM
4 | CN(C)CC(=O)N(C)c1ccc(N/C(=C2\C(=O)Nc3cc(Cl)ccc32)c2ccc3c(c2)ncn3C)cc1 [(ak), 3-(Z)-{1-(4-[N-methyl-N-(dimethylaminomethylcarbonyl)-amino]-phenylamino)-1-(1-methyl-benzimidazol-5-yl)-methylene}-6-chloro-2-indolinone] | 270 °C | 0.03 µM
5 | CCCS(=O)(=O)N(CCN(C)C)c1ccc(N/C(=C2\C(=O)Nc3cc(Cl)ccc32)c2ccncc2)cc1 [(ax), 3-(Z)-{1-(4-[N-(propanesulphonyl)-N-(2-dimethylaminoethyl)-amino]-phenylamino)-1-(4-pyridyl)-methylene}-6-chloro-2-indolinone] | 228 to 232 °C | 0.037 µM
6 | Cc1nc2ccc(/C(Nc3ccc(CN4CCCC4)cc3)=C3/C(=O)Nc4cc(Cl)ccc43)cc2[nH]1 [(ay), 3-(Z)-{1-[4-(pyrrolidin-1-yl-methyl)-phenylamino]-1-(2-methyl-benzimidazol-5-yl)-methylene}-6-chloro-2-indolinone] | 295 to 297 °C (dec.) | 0.019 µM
7 | CN(C)Cc1ccc(N/C(=C2\C(=O)Nc3cc(Cl)ccc32)c2ccc3c(c2)ncn3C)cc1 [(f), 3-(Z)-{1-[4-(dimethylaminomethyl)-phenylamino]-1-(1-methyl-benzimidazol-5-yl)-methylene}-6-chloro-2-indolinone] | 288 °C (dec.) | 0.002 µM
8 | CCNCc1ccc(N/C(=C2\C(=O)Nc3cc(F)ccc32)c2ccc3c(c2)OCCO3)cc1 [(l), 3-(Z)-{1-[4-(ethylaminomethyl)-phenylamino]-1-(3,4-ethylenedioxyphenyl)-methylene}-6-fluoro-2-indolinone] | 153 to 154 °C | 0.01 µM
9 | CCNCc1ccc(N/C(=C2\C(=O)Nc3cc(C(=O)OC)ccc32)c2ccc3c(c2)OCCO3)cc1 [(u), 3-(Z)-{1-(4-[ethylamino-methyl]-phenylamino)-1-(3,4-ethylenedioxyphenyl)-methylene}-6-methoxycarbonyl-2-indolinone] | 266 °C | 0.0008 µM
10 | COC(=O)c1ccc2c(c1)NC(=O)/C2=C(\Nc1ccc(CN2CCN(C)CC2)cc1)c1ccc2c(c1)OCCO2 [(v), 3-(Z)-{1-(4-[4-methylpiperazin-1-yl-methyl]-phenylamino)-1-(3,4-ethylenedioxy-phenyl)-methylene}-6-methoxycarbonyl-2-indolinone] | 271 to 273 °C | 0.001 µM
